These results are taken from ChEMBL document CHEMBL4483862, “Open-source discovery of chemical leads for next-generation chemoprotective antimalarials” (2018).

For this assay, the system named is Plasmodium berghei. As to the kind of experiment: Luciferase/luciferin-expressing antifolate-resistant parasites were used to infect a culture of HepG2 cells that were pre-incubated with compounds. Infected hepatocytes emit light due to the luciferase reaction. Assay results are presented as the percent inhibition of light emission compared to control. […]. In kind it is functional. The following applies: sporozoite; for IC90: read-out: LUCIFERASE INFECTION ASSAY - IC90.

Setting [1] is: read-out: LUCIFERASE INFECTION ASSAY - IC50.

One may read the IC50 as the point on the concentration scale where inhibition reaches its midpoint. One may read the IC90 as the point of the concentration-response curve where the effect stands at 90%. Consider `CC(NC(=O)CSc1nnc(-c2cccs2)[nH]1)c1ccc2c(c1)CCCC2` (configuration not stated), for which the IC90 is over 10 µM. Also, the IC50 (HEPG2TOX_HILL_SLOPE 0.208, HEPG2TOX_R_SQUARED 0.204, PBLUC_HILL_SLOPE 1.17, PBLUC_R_SQUARED 0.355, read-out: LUCIFERASE INFECTION ASSAY - IC50) turned out to be 7.84 µM.
As to `Cc1ccc(/N=C/c2cc3ccccc3nc2Sc2ccc(C)cc2)cc1`, the concentration for an effect of 90% (IC90) was over 10 µM. For the same compound, the IC50 under setting [1] was over 10 µM.
As for `O=C(Nc1cccnc1)N1CCc2nc(Nc3cc(Cl)cc(Cl)c3)ncc2C1`, the IC90 is over 7.95 µM. In addition, the IC50 under setting [1] is over 7.95 µM.
On to `CN(c1ccccc1)S(=O)(=O)c1cc(C(=O)c2nnc(-c3ccc(Cl)cc3)o2)ccc1Cl`, for which the IC90 was over 10 µM. For the same compound, under setting [1], the IC50 is over 10 µM.
Take `c1ccn2c(Sc3ncnc4sccc34)nnc2c1`: the IC90 amounted to 9.31 µM. In addition, the IC50 (PBLUC_HILL_SLOPE 16.1, PBLUC_R_SQUARED 0.0872, read-out: LUCIFERASE INFECTION ASSAY - IC50) amounted to 8.13 µM.
For the compound `CCOc1ccc(Oc2ccc(S(=O)(=O)Oc3ccccc3C(N)=O)cc2)cc1`, the IC90 amounted to 3.39 µM. The IC50 (PBLUC_HILL_SLOPE 12.7, PBLUC_R_SQUARED 0.259, read-out: LUCIFERASE INFECTION ASSAY - IC50) amounted to 2.85 µM.
As for `CCCNC(=O)c1c(NC(=O)c2ccc(C)cc2)nc2ccc(C)cn12`, the IC90 amounted to 4.76 µM. Further, the IC50 (FFLUC_HILL_SLOPE 15.6, FFLUC_R_SQUARED 0.337, HEPG2TOX_HILL_SLOPE 1.6, HEPG2TOX_R_SQUARED 0.209, PBLUC_HILL_SLOPE 10.4, PBLUC_R_SQUARED 0.336, read-out: LUCIFERASE INFECTION ASSAY - IC50) is 3.85 µM.
As for `O=C(N/N=C/c1c(Cl)nc2ccccn2c1=O)c1ccc(F)cc1`, the IC90 was over 10 µM. Also, under setting [1], the half-maximal inhibitory concentration (IC50) was over 10 µM.
`O=C(Nc1cc(S(=O)(=O)N2CCCC2)ccc1O)c1sccc1-n1cccc1`: the IC90 is 3.25 µM. Under “FFLUC_HILL_SLOPE 4.58, FFLUC_R_SQUARED 0.706, PBLUC_HILL_SLOPE 1.57, PBLUC_R_SQUARED 0.879, read-out: LUCIFERASE INFECTION ASSAY - IC50”, the IC50 came out at 0.802 µM.
For `O=C(C1CCCN(c2cnccn2)C1)N1CCN(C(c2ccc(F)cc2)c2ccc(F)cc2)CC1` (configuration not stated), the concentration for an effect of 90% (IC90) was over 10 µM. The IC50 (PBLUC_HILL_SLOPE 27.2, PBLUC_R_SQUARED 0.0353, read-out: LUCIFERASE INFECTION ASSAY - IC50) worked out at 9.76 µM.
Consider `CCc1nc(Sc2nnnn2-c2ccccc2)c2c3c(sc2n1)CCCC3`, for which the IC90 was over 10 µM. For the same compound, the IC50 under setting [1] is over 10 µM.
In the case of `O=C(O)C1CC=CCC1C(=O)NN=c1nc[nH]c2ccccc12` (configuration not stated), the IC90 is over 10 µM. Moreover, the IC50 under setting [1] was over 10 µM.
`Cc1ccc(/C=N/Nc2nn3c(=O)c4ccccc4nc3c3ccccc23)o1`: the IC90 is 8.5 µM. Besides, under “HEPG2TOX_HILL_SLOPE 9.29, HEPG2TOX_R_SQUARED 0.957, PBLUC_HILL_SLOPE 5.5, PBLUC_R_SQUARED 0.698, read-out: LUCIFERASE INFECTION ASSAY - IC50”, the IC50 worked out at 5.7 µM.
With `COc1ccc(CCNC(=O)COC(=O)c2sc(C)nc2C)cc1`, the IC90 is over 10 µM. For the same compound, under setting [1], the half-inhibitory concentration (IC50) was over 10 µM.
In the case of `COc1cc(-c2nc3ccc(NC(=O)Nc4ccc(C)cc4)cn3n2)cc(OC)c1OC`, the IC90 is 2.87 µM. Moreover, the IC50 (HEPG2TOX_HILL_SLOPE 3.16, HEPG2TOX_R_SQUARED 0.688, PBLUC_HILL_SLOPE 3.03, PBLUC_R_SQUARED 0.446, read-out: LUCIFERASE INFECTION ASSAY - IC50) worked out at 1.39 µM.
Regarding `Cc1ccsc1CN(C)Cc1nnc(C(=O)Nc2ccc(Cl)cc2)s1`, the IC90 was over 10 µM. The half-maximal inhibitory concentration (IC50) under setting [1] was over 10 µM.
On to `Cc1ccc2c(c1)C1CN(C)CCC1N2C(=O)c1cc2c(s1)CCCC2` (configuration not stated), for which the IC90 was over 10 µM. In addition, the concentration for half-maximal inhibition (IC50) (PBLUC_HILL_SLOPE 0.917, 1.13, PBLUC_R_SQUARED 0.241, 0.572, read-out: LUCIFERASE INFECTION ASSAY - IC50) was 2.93 µM.
With `COc1ccccc1-c1cnc2c(Nc3ccc(NS(=O)(=O)c4ccc(C)cc4)cc3)nccn12`, the IC90 was over 6.8 µM. Besides, under setting [1], the IC50 was found to be 1.57 µM.
With `CC(=O)Nc1nc(C(=O)Nc2ccc3c(c2)OC(F)(F)O3)cs1`, the concentration for an effect of 90% (IC90) is over 10 µM. Where the note is “PBLUC_HILL_SLOPE 15.0, 3.17, PBLUC_R_SQUARED 0.232, 0.795, read-out: LUCIFERASE INFECTION ASSAY - IC50”, the IC50 amounted to 7.96 µM.
For the compound `CCN(CCNc1ncnc2sc(-c3ccccc3)cc12)c1cccc(C)c1`, the 90% effect concentration (IC90) came out at 3.9 µM. Further, the IC50 (HEPG2TOX_HILL_SLOPE 2.04, HEPG2TOX_R_SQUARED 0.0176, PBLUC_HILL_SLOPE 12.8, PBLUC_R_SQUARED 0.373, read-out: LUCIFERASE INFECTION ASSAY - IC50) turned out to be 3.29 µM.
In the case of `CN(C)c1nc(C=C(C#N)C#N)c(Cl)n1-c1ccc(F)cc1`, the IC90 is over 10 µM. In addition, the IC50 under setting [1] was over 10 µM.
For the compound `O=C(Nc1nonc1-c1cccs1)c1ccc(Br)cc1`, the IC90 is 6.36 µM. In addition, the IC50 (HEPG2TOX_HILL_SLOPE 7.96, HEPG2TOX_R_SQUARED 0.814, PBLUC_HILL_SLOPE 7.42, PBLUC_R_SQUARED 0.0569, read-out: LUCIFERASE INFECTION ASSAY - IC50) was determined as 4.73 µM.
As for `CCc1nc(COC(=O)c2c(C)nsc2NC)cs1`, the IC90 is 5.52 µM. Further, under setting [1], the IC50 is 1.53 µM.
Turning to `CC1=C2CCC(C)CC23C2C(=O)N(Cc4ccc(Cl)cc4)C(=O)C2C1C1C(=O)N(Cc2ccc(Cl)cc2)C(=O)C13` (configuration not stated), the IC90 was over 5.71 µM. Under “HEPG2TOX_HILL_SLOPE 0.355, HEPG2TOX_R_SQUARED 0.414, PBLUC_HILL_SLOPE 1.68, PBLUC_R_SQUARED 0.433, read-out: LUCIFERASE INFECTION ASSAY - IC50”, the IC50 stood at 3.28 µM.
On to `CCOC(=O)C(NC(=O)c1ccco1)(Nc1ccc(F)c(Cl)c1)C(F)(F)F` (configuration not stated), for which the IC90 was over 8.07 µM. Moreover, the half-maximal inhibitory concentration (IC50) under setting [1] was over 8.07 µM.
For the compound `COc1ccc(-c2csc3ncnc(NCCC(C)C)c23)cc1`, the IC90 is over 10 µM. The IC50 under setting [1] is over 10 µM.
As to `Nc1nc2ccccc2n1Cc1ccc(Cl)cc1`, the IC90 is 5.46 µM. Also, the IC50 (HEPG2TOX_HILL_SLOPE 1, HEPG2TOX_R_SQUARED 0.963, PBLUC_HILL_SLOPE 11.6, PBLUC_R_SQUARED 0.65, read-out: LUCIFERASE INFECTION ASSAY - IC50) stood at 4.52 µM.
Regarding `Cc1ccc(NC(=O)/C(=C/c2cccc(F)c2)n2nnnc2C)cc1S(=O)(=O)N1CCCCCC1`, the IC90 was 4.24 µM. Moreover, under “HEPG2TOX_HILL_SLOPE 12.2, HEPG2TOX_R_SQUARED 0.863, PBLUC_HILL_SLOPE 25.1, PBLUC_R_SQUARED 0.833, read-out: LUCIFERASE INFECTION ASSAY - IC50”, the IC50 was found to be 3.89 µM.
Turning to `CCOC(=O)c1c(C)[nH]c(C(=O)CSc2nnc(C3COc4ccccc4O3)n2-c2ccccc2)c1C` (configuration not stated), the IC90 was over 10 µM. Also, under setting [1], the half-maximal inhibitory concentration (IC50) was over 10 µM.
For `O=C(NCC1CC1)c1cccc(C2(CNCc3ccc(F)c(Cl)c3)CC2)c1`, the IC90 was over 10 µM. Besides, the IC50 under setting [1] is over 10 µM.
With `O=C1CCC(c2ccccc2)C(=O)/C1=N\Nc1ccccc1Cl` (configuration not stated), the IC90 was over 10.1 µM. Also, the half-inhibitory concentration (IC50) under setting [1] is over 10.1 µM.
Regarding `CN1/C(=C\C(=O)CCCSc2nnc(-c3ccccc3)n2N)C(C)(C)c2ccccc21`, the IC90 was over 10 µM. Further, the IC50 (FFLUC_HILL_SLOPE 2.28, FFLUC_R_SQUARED 0.541, HEPG2TOX_HILL_SLOPE 7.74, HEPG2TOX_R_SQUARED 0.566, PBLUC_HILL_SLOPE 1.71, PBLUC_R_SQUARED 0.591, read-out: LUCIFERASE INFECTION ASSAY - IC50) turned out to be 3.64 µM.
On to `COc1ccc(-c2nc(-c3ccccc3)c(-c3ccccc3)[nH]2)cc1OCC(N)=O`, for which the IC90 is over 10 µM. In addition, the IC50 (PBLUC_HILL_SLOPE 1.74, PBLUC_R_SQUARED 0.661, read-out: LUCIFERASE INFECTION ASSAY - IC50) stood at 6.3 µM.
Consider `CC(C)(C)c1ccc(NC(=O)Cc2csc(NC(=O)C3CC3)n2)cc1`, for which the IC90 is over 10 µM. In addition, under setting [1], the half-inhibitory concentration (IC50) was over 10 µM.
For `CC(C)NC(=S)N/N=C1\C(=O)Nc2ccc(C(C)C)cc21`, the IC90 worked out at 4.02 µM. For the setting “FFLUC_HILL_SLOPE 3.36, FFLUC_R_SQUARED 0.392, HEPG2TOX_HILL_SLOPE 1.41, HEPG2TOX_R_SQUARED 0.93, PBLUC_HILL_SLOPE 4.04, PBLUC_R_SQUARED 0.837, read-out: LUCIFERASE INFECTION ASSAY - IC50”, the 50% inhibitory concentration (IC50) turned out to be 2.33 µM.
As for `O=C(CN(Cc1c(F)cccc1Cl)C1CC1)Nc1ccccc1Cl`, the IC90 is over 10 µM. Also, the IC50 (FFLUC_HILL_SLOPE 11.2, FFLUC_R_SQUARED 0.995, read-out: LUCIFERASE INFECTION ASSAY - IC50) was over 10 µM.
For `C1=C(c2nc3ccccc3[nH]2)C(c2ccccc2)=NNC1c1ccccc1` (configuration not stated), the IC90 was over 10 µM. Under setting [1], the IC50 was 9.97 µM.
In the case of `O=C1C=C(c2ccc(Cl)cc2)C(=O)N1Nc1ccc(F)cc1`, the IC90 was over 10.4 µM. For the same compound, the IC50 (HEPG2TOX_HILL_SLOPE 7.85, HEPG2TOX_R_SQUARED 0.837, PBLUC_HILL_SLOPE 13.2, PBLUC_R_SQUARED 0.145, read-out: LUCIFERASE INFECTION ASSAY - IC50) is 10.2 µM.
As for `O=C1C=CC(=O)N1c1cccc(Cl)c1Cl`, the IC90 was over 13.6 µM. Besides, for the setting “FFLUC_HILL_SLOPE 90.3, FFLUC_R_SQUARED 0.368, read-out: LUCIFERASE INFECTION ASSAY - IC50”, the IC50 is over 13.6 µM.
With `COc1ccc(C(N)c2csc(NC(=O)NC(c3ccccc3)c3ccccc3)n2)cc1` (configuration not stated), the IC90 worked out at 3.36 µM. Also, the IC50 (PBLUC_HILL_SLOPE 167, PBLUC_R_SQUARED 0.12, read-out: LUCIFERASE INFECTION ASSAY - IC50) was determined as 3.31 µM.
In the case of `Cc1ccc(C)c(NC(=O)CN(C)C(=O)CN(C)C(C)c2ccccc2)c1` (configuration not stated), the IC90 was over 10 µM. The IC50 under setting [1] is over 10 µM.
